Assays:
rabbit eyes = assay: Eye irritation study; format: in vivo, albino rabbits; conditions: 0.1 ml instilled into one eye, nine rabbits
Method: The test procedure employed is described in the Appraisal of the Safety of Chemicals in Foods, Drugs and Cosmetics, published by the Association of Food and Drug Officials of the United States. Nine normal healthy albino rabbits were used for this study.
Each of the nine animals had 0.1 ml of the test material (benzyl linoleate) instilled into one eye of each test animal. The other eye was untreated and observed as a control. Two seconds after instillation of the test material, a washout was conducted in 3 of the rabbits using 20 ml. of warm water. Four seconds after test material instillation, washout was conducted in 3 additional rabbits using 20 ml. of warm water. All animals were examined frequently during the seven following days.

Skin = assay: Dermal irritation study (primary irritation of the skin); format: in vivo; conditions: 0.5 ml/patch, 4 patches on each of 6 rabbits
Method: The test procedure employed is described as Local Toxicity, Primary Irritation of the Skin in “Appraisal of the Safety of Chemicals in Foods, Drugs and Cosmetics” published by the Food & Drug Officials of the United States.
The dose to test the response was 0.5 ml/patch with 4 patches on each of 6 rabbits. The results indicated a primary skin irritation index of 2.375.

Rats = assay: Oral LD50; format: in vivo
Description: The test procedure employed is described in the “Appraisal of the Safety of Chemicals in Foods, Drugs and Cosmetics” published by the Food & Drug Officials of the United States.

CCCCC/C=C\C/C=C\CCCCCCCC(=O)OCc1ccccc1 [Benzyl Linoleate]
eye irritation classification according to the reference (rabbit eyes): non-irritating
irritation in rabbit eyes (rabbit eyes; with and without washout, observed seven days): no irritation
primary skin irritation index (Skin): 2.375
skin irritation classification in this test system (Skin): moderate irritant
Oral LD50 (Rats; rat, in vivo, po): 7.0 mL/kg
gross autopsy findings on dead animals (Rats; rats, oral LD50 study): hemorrhagic lungs, dark livers and spleens, slight hemorrhagic stomachs and intestines and pale kidneys
